Test [1] concerns the target Recombinant Human Siglec-3/CD33 protein (His-CD33) (Homo sapiens (Human), UniProt P20138). Put plainly: Differential scanning fluorimetry (DSF) thermal shift assay. The test is classed as binding. As to the method:
In the DSF assay, as the temperature increases, the protein gets gradually unfolded, exposing hydrophobic regions in which a fluorescent dye binds causing the fluorescence signal to increase. The midpoint of the unfolding transitions is called the thermal melt (Tm) or denaturation temperature and the Tm was defined as the peak apex in the derivative curve. Here, the Tm temperature of CD33 in the presence and absence of A-001 at a concentration of 50 μM was examined.
Recombinant Human Siglec-3/CD33 protein was purchased from Acros (catalog no. CD3-H5226) and reagents used in this study are shown in the Table 1 below.
Lyophilized CD33 protein was received in 1 mg aliquots from Acros. The protein was diluted with 2.5 mL of sterile water to a concentration of 400 μg/mL (14.5 μM), aliquoted into 138 μL aliquots and stored as at −20° C. On the day of analysis, the protein was thawed and […] solution was diluted to […] using buffer containing 133 mM NaCl, 133 mM phosphate buffered solution and 13.9× Sypro Orange dye in water in a quantity to cover the amount of samples tested on the day of the analysis.
200 μM stock solutions of A-001 containing 0.2% DMSO in water was supplied by compound management in a 384-well plate format.
Sample matrix were prepared by adding 7.5 μL of the protein buffer stock solution followed by addition of 2.5 μL of the 200 μM compound solutions in 384-well PCR plates to give a final volume of 10 μL per well consisting of 0.5 μM CD33 protein, 100 mM phosphate buffered solution pH 7.4, 100 mM NaCl, 10× SYPRO orange dye and 50 μM compound concentration (final DMSO concentration ˜0.2%). Using the Applied Biosystems® Protein Thermal Shift software (algorithm version 1.3.), the denaturation temperature or thermal melt (Tm) of the unbound and ligand bound CD33 protein was automatically assigned and the difference in thermal melt (ΔTm D) was calculated using the derivative curve by the Protein Thermal Shift software.
Recombinant human CD33 protein (0.5 μM) was incubated under buffered conditions in the presence of SYPRO orange dye, a temperature gradient was applied and a thermogram was produced by monitoring the fluorescence. The Tm was defined as the peak apex in the derivative curve in the study. […] Addition of […] of A-001 (Blue lines) to the CD33 protein induced significant Tm increases (ΔTm D) of 12.2±0.7° C.
(DSF heats the sample and reads unfolding from a dye or from intrinsic fluorescence.)

The target of test [2] is Recombinant human CD33 protein (Homo sapiens (Human), UniProt P20138). Put plainly: CD33 competitive binding assay for HTS drug screen (fluorescent multivalent sialic acid probe). A digest of the protocol:
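Recombinant human CD33, coated overnight at 4° C from 10 μg/ml in pH 5.5 acetate, was preincubated briefly with compound. It was then exposed to a multivalent neutravidin/FITC/sialic acid analog A-375 probe (final 5 μM neutravidin, 15 μM A-375, 5 μM FITC) for 30 min at room temperature. After washing, bound FITC fluorescence was read.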

Where [3] appears, read: difference in thermal melt of CD33 protein (0.5 μM) with 50 μM compound.
[4] abbreviates: thermal melt shift of 0.5 μM CD33 protein with 50 μM compound.

Recombinant Human Siglec-3/CD33 protein (His-CD33), sequence (P20138 18-259): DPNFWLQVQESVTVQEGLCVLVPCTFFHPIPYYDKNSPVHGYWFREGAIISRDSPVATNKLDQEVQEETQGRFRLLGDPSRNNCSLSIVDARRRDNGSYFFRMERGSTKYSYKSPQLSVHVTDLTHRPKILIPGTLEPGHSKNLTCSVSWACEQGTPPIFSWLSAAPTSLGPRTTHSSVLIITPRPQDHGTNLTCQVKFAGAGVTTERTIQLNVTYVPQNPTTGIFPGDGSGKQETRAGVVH
Recombinant human CD33 protein, sequence (P20138 18-259): as above

The EC50 is the concentration needed to bring the measured effect to its halfway point. For `Cc1cc(C(=O)NC[C@@H](O)[C@@H](O)[C@@H]2O[C@@](C/C=C/c3cccc(CNC(=O)c4ccon4)c3)(C(=O)O)C[C@H](O)[C@H]2NC(=O)Cn2cc(C3CCCCC3)nn2)cc(C)c1O` [A-271], in test [1] (setting [3]), the “DSF (dTmD)” value came out at 5.1 °C. Moreover, the concentration giving a half-maximal response (EC50) in test [2] is 3990 nM.
Regarding `Cc1cc2cc(C)c1OCCCNC(=O)[C@H](C)COCCCC[C@]1(C(=O)O)C[C@H](O)[C@@H](NC(=O)Cn3cc(C4CCCCC4)nn3)[C@@H](O1)[C@H](O)[C@H](O)CNC2=O` [A-359], the “DSF (dTmD)” value in test [1] (setting [3]) turned out to be 1.1 °C. For the same compound, in test [2], the concentration for a half-maximal effect (EC50) was determined as 59800 nM.
The like results for `Cc1cc2cc(C)c1OCCCNC(=O)CCCCCCC[C@]1(C(=O)O)C[C@H](O)[C@@H](NC(=O)Cn3cc(C4CCCCC4)nn3)[C@@H](O1)[C@H](O)[C@H](O)CNC2=O` [A-344] were, in that order, 1.52 °C and 18000 nM.
As for `CC(=O)N[C@H]1[C@H]([C@H](O)[C@H](O)CNC(=O)c2cc(C)[nH]n2)O[C@@](CCN2CCOC[C@@]23CCN(C(=O)OC(C)(C)C)C3)(C(=O)O)C[C@@H]1O` [A-156], the “DSF (dTmD)” value in test [1] (setting [4]) is 8.9. Also, the 50% effective concentration (EC50) in test [2] was found to be 138 nM.
On to `Cc1cc2cc(C)c1OCCCCNC(=O)CCCCCC[C@]1(C(=O)O)C[C@H](O)[C@@H](NC(=O)Cn3cc(C4CCCCC4)nn3)[C@@H](O1)[C@H](O)[C@H](O)CNC2=O` [A-346], for which the “DSF (dTmD)” value in test [1] (setting [3]) came out at 3.4 °C. In addition, the EC50 in test [2] came out at 13300 nM.
Take `CC(=O)N[C@H]1[C@H]([C@H](O)[C@H](O)CNC(=O)c2cc(C)c(O)c(C)c2)O[C@@](C/C=C/c2cccc(CNC(=O)c3ccc4[nH]c(C(C)(C)CO)cc4c3)c2)(C(=O)O)C[C@@H]1O` [A-249]: the “DSF (dTmD)” value in test [1] (setting [3]) was found to be 8.1 °C. Moreover, the EC50 in test [2] was determined as 224 nM.
Consider `CC(=O)N[C@H]1[C@H]([C@H](O)[C@H](O)CNC(=O)c2cc(C)c(O)c(C)c2)O[C@@](CC2COC(C)(C)O2)(C(=O)O)C[C@@H]1O` (stereo partly shown) [A-307], for which the “DSF (dTmD)” value in test [1] (setting [3]) worked out at 0.0 °C. In addition, the EC50 in test [2] is 103000 nM.
For `Cc1cc2cc(C)c1OCCCNC(=O)CCCCCC[C@]1(C(=O)O)C[C@H](O)[C@@H](NC(=O)Cn3cc(C4CCCCC4)nn3)[C@@H](O1)[C@H](O)[C@H](O)CNC2=O` [A-345], the “DSF (dTmD)” value in test [1] (setting [3]) is 3.2 °C. Further, the EC50 in test [2] amounted to 21400 nM.
The like results for `CC(=O)N[C@H]1[C@H]([C@H](O)[C@H](O)CNC(=O)c2cc(C)c(O)c(C)c2)O[C@](CO)(CCN2CCOC[C@@]23CCN(C(=O)OC(C)(C)C)C3)C[C@@H]1O` [A-360] were, in that order, −0.3 °C and > 100000 nM.
As to `CC(=O)N[C@H]1[C@H]([C@H](O)[C@H](O)CNC(=O)c2cc(Cl)c(F)c(Cl)c2)O[C@@](CCN2CCOC[C@@]23CCN(C(=O)OC(C)(C)C)C3)(C(=O)O)C[C@@H]1O` [A-159], the “DSF (dTmD)” value in test [1] (setting [4]) is 11.4. Besides, the EC50 in test [2] came out at 238 nM.
With `CC(=O)N[C@H]1[C@H]([C@H](O)[C@H](O)CNC(=O)c2cc(C)c(O)c(C)c2)O[C@@](CC2OC(C)(C)O[C@H]2c2cccc(N3CCCCC3=O)c2)(C(=O)O)C[C@@H]1O` (stereo partly shown) [A-316], in test [1] (setting [3]), the “DSF (dTmD)” value turned out to be 3.8 °C. Also, in test [2], the EC50 is 4860 nM.
Turning to `CC(=O)N[C@H]1[C@H]([C@H](O)[C@H](O)CNC(=O)c2cc(C)c(O)c(C)c2)O[C@@](CCN2CCOC[C@@]23CCN(C(=O)C(C)(C)C)C3)(C(=O)O)C[C@@H]1O` [A-097], in test [1] (setting [4]), the “DSF (dTmD)” value was determined as 8.25. Further, the concentration giving a half-maximal response (EC50) in test [2] turned out to be 430 nM.
On to `CC(=O)N[C@H]1[C@H]([C@H](O)[C@H](O)CNC(=O)c2cc(C)c(O)c(C)c2)O[C@@](C/C=C/c2cccc(CN(C)C(=O)C3CCCOC3)c2)(C(=O)O)C[C@@H]1O` (stereo partly shown) [A-292], for which, in test [1] (setting [3]), the “DSF (dTmD)” value was determined as 4.0 °C. In test [2], the EC50 worked out at 3020 nM.
Take `CC(=O)N[C@H]1[C@H]2O[C@](C(=O)O)(C/C=C/COC[C@@H](NC(=O)[C@@H]3CCCOC3)COCCCOc3c(C)cc(cc3C)C(=O)NC[C@@H](O)[C@H]2O)C[C@@H]1O` [A-336]: the “DSF (dTmD)” value in test [1] (setting [3]) was 3.6 °C. Also, in test [2], the concentration giving a half-maximal response (EC50) came out at 4190 nM.
For `CC(=O)N[C@H]1[C@H]([C@H](O)[C@H](O)CNC(=O)c2cc(C)c3[nH]ncc3c2)O[C@@](CCN2CCOC[C@@]23CCN(C(=O)OC(C)(C)C)C3)(C(=O)O)C[C@@H]1O` [A-111], in test [1] (setting [4]), the “DSF (dTmD)” value was 12.5. Moreover, in test [2], the EC50 was 16 nM.
As to `CC(=O)N[C@H]1[C@H]([C@H](O)[C@H](O)CNC(=O)c2cccc(C)c2)O[C@@](CCN2CCOC[C@@]23CCN(C(=O)OC(C)(C)C)C3)(C(=O)O)C[C@@H]1O` [A-181], in test [1] (setting [4]), the “DSF (dTmD)” value is reported as 10.9. Besides, the EC50 in test [2] turned out to be 70 nM.
For the compound `CC(=O)N[C@H]1[C@H]([C@H](O)[C@H](O)CNC(=O)c2cc(C)c(O)c(C)c2)O[C@](C#N)(CCN2CCOC[C@@]23CCN(C(=O)OC(C)(C)C)C3)C[C@@H]1O` [A-362], in test [1] (setting [3]), the “DSF (dTmD)” value was −0.3 °C. For the same compound, the EC50 in test [2] is > 100000 nM.
Turning to `CC(=O)N[C@H]1[C@H]([C@H](O)[C@H](O)CNC(=O)c2ccc3occc3c2)O[C@@](CCN2CCOC[C@@]23CCN(C(=O)OC(C)(C)C)C3)(C(=O)O)C[C@@H]1O` [A-121], the “DSF (dTmD)” value in test [1] (setting [4]) was 13.6. The EC50 in test [2] came out at 29 nM.
With `Cc1cc(C(=O)NC[C@@H](O)[C@@H](O)[C@@H]2O[C@@](C/C=C/c3cccc(CNC(=O)c4ccc5[nH]ccc5c4)c3)(C(=O)O)C[C@H](O)[C@H]2NC(=O)Cn2cc(C3CCCCC3)nn2)cc(C)c1O` [A-278], in test [1] (setting [3]), the “DSF (dTmD)” value stood at 8.8 °C. Besides, the concentration giving a half-maximal response (EC50) in test [2] amounted to 1740 nM.
In the case of `CC(=O)N[C@H]1[C@H]([C@H](O)[C@H](O)CNC(=O)c2cc(C)c(O)c(C)c2)O[C@@](CCN2CCOC[C@@]23CCN(C(=O)N[C@@H](C)c2ccccc2)C3)(C(=O)O)C[C@@H]1O` [A-043], the “DSF (dTmD)” value in test [1] (setting [4]) came out at 13.2. In addition, in test [2], the EC50 is 13 nM.
For `CC(=O)N[C@H]1[C@H]([C@H](O)[C@H](O)CNC(=O)c2cc(C)c(O)c(C)c2)O[C@@](C/C=C/c2cccc(CNC(=O)c3ccc(Nc4ncccn4)cc3)c2)(C(=O)O)C[C@@H]1O` [A-240], in test [1] (setting [3]), the “DSF (dTmD)” value is 6.2 °C. In test [2], the half-maximal effective concentration (EC50) amounted to 227 nM.
As to `CC(=O)N[C@H]1[C@H]([C@H](O)[C@H](O)CNC(=O)c2cc(C)c(O)c(C)c2)O[C@@](CCN2CCOC[C@@]23CCN(C(=O)NC24CC5CC(CC(C5)C2)C4)C3)(C(=O)O)C[C@@H]1O` [A-049], the “DSF (dTmD)” value in test [1] (setting [4]) was 13.5. Moreover, in test [2], the concentration for a half-maximal effect (EC50) is 41 nM.
In the case of `CC(=O)N[C@H]1[C@H]([C@H](O)[C@H](O)CNC(=O)c2ccc3c(c2)N(C)C(=O)CO3)O[C@@](CCN2CCOC[C@@]23CCN(C(=O)OC(C)(C)C)C3)(C(=O)O)C[C@@H]1O` [A-150], the “DSF (dTmD)” value in test [1] (setting [4]) came to 9.6. Further, the EC50 in test [2] came out at 219 nM.
Consider `CC(=O)N[C@H]1[C@H]([C@H](O)[C@H](O)CNC(=O)c2cc(C)c(O)c(C)c2)O[C@@](CCN2CCOC[C@@]23CCN(C(=O)OC(C)(C)C)C3)(C(N)=O)C[C@@H]1O` [A-364], for which, in test [1] (setting [3]), the “DSF (dTmD)” value stood at 0.1 °C. The EC50 in test [2] was > 100000 nM.
For `CC(=O)N[C@H]1[C@H]([C@H](O)[C@H](O)CNC(=O)c2cc(Cl)[nH]n2)O[C@@](CCN2CCOC[C@@]23CCN(C(=O)OC(C)(C)C)C3)(C(=O)O)C[C@@H]1O` [A-157], the “DSF (dTmD)” value in test [1] (setting [4]) amounted to 10.3. The half-maximal effective concentration (EC50) in test [2] worked out at 80 nM.
For `CC(=O)N[C@H]1[C@H]([C@H](O)[C@H](O)CNC(=O)c2cc(C)c(O)c(C)c2)O[C@@](CCN2CCOC[C@@]23CCN(C(=O)C2(C)COC2)C3)(C(=O)O)C[C@@H]1O` [A-100], the “DSF (dTmD)” value in test [1] (setting [4]) was 5.6. Further, the half-maximal effective concentration (EC50) in test [2] amounted to 2340 nM.
